Data published in patent US9828381B2, “Substituted pyrazolopyrimidines and method of use” (AbbVie Deutschland GmbH & Co. KG, priority 2015, dated 2017).

Each compound was assayed against GABA-B receptor (Rattus norvegicus (Rat), UniProt O88871+Q9Z0U4) (assay: [35S]GTPgS binding assay, rat cortical membranes, in presence of EC25 GABA). Conditions: rat brain cortex membranes; in presence of 1 μM GABA (EC25); positive allosteric modulation.
GABA-B receptor, sequence (Q9Z0U4 17-960): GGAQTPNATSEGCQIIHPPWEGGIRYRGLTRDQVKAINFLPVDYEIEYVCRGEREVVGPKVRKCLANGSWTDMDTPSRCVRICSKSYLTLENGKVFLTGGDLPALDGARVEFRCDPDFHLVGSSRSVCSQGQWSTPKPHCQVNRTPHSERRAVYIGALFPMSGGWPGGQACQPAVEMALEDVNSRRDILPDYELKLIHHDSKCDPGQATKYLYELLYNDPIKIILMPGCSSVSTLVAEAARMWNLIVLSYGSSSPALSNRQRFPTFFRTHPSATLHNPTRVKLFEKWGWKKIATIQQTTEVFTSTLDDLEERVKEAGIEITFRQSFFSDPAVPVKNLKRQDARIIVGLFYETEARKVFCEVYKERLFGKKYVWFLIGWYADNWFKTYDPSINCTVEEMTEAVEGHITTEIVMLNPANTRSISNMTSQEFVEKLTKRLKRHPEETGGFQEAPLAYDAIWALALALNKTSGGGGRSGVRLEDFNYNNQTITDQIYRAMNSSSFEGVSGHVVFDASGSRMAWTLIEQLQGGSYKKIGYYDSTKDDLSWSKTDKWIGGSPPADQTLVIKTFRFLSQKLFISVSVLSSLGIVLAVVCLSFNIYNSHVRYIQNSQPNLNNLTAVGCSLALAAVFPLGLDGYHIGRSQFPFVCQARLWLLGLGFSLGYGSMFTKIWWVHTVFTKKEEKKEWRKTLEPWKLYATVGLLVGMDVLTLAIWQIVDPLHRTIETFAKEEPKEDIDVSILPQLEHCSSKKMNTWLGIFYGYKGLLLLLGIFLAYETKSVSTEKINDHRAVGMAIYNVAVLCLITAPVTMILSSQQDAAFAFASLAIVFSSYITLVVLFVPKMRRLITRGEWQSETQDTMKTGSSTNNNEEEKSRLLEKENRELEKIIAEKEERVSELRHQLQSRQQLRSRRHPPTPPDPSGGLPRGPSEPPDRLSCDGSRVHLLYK
GABA-B receptor, sequence (O88871 41-940): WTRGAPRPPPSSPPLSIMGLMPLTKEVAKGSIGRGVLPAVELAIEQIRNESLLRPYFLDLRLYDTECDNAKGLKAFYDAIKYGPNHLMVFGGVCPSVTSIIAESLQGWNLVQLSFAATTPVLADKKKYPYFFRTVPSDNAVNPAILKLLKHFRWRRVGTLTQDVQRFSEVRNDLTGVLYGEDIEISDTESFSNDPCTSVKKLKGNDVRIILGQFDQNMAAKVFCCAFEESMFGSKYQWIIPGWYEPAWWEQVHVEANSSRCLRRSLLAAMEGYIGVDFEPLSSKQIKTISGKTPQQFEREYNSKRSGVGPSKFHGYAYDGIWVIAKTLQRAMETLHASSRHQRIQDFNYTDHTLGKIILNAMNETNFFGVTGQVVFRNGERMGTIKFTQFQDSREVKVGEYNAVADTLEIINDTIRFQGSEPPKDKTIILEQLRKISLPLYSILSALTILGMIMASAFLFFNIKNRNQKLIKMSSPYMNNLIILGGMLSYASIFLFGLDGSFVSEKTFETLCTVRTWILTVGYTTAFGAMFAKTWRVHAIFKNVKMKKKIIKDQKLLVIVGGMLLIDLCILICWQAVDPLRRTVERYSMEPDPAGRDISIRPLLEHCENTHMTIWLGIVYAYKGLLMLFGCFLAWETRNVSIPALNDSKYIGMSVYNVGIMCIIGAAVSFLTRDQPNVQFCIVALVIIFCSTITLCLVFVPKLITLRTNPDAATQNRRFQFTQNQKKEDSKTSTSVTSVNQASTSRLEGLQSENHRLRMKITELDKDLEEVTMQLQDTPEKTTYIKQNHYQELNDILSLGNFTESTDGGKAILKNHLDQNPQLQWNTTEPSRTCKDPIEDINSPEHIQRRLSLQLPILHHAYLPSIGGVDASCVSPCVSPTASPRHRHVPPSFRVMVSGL
Assay type: biochemical
Description: Preparation of Rat Brain Membranes for Native Receptor Assays
Membranes from rat brain cortex were prepared as described in detail by Olpe et al. and stored at concentrations of 1.66 mg/mL protein at −80° C. until required. (Olpe, H.-R, et al. Eur J Pharmacol 1990; 187: 27-38).
[^35S] GTPgS Binding Assay
The composition of the assay mixtures [in a final volume of 200 μL in 96-well U-bottom plates (Greiner) was as follows: 50 mM Tris-HCl buffer, pH 7.7, 10 mM MgCl2, 0.2 mM EGTA, 2 mM CaCl2, 100 mM NaCl, 20 µM guanosine 5′-diphosphate (Sigma), 0.3 nM [^35S]GTPgS (1250 Ci/mmol (PerkinElmer)), and the test compounds at increasing concentrations (from 10 nM up to […]), […] of rat cortical membranes, and a concentration of […], that has been observed in previous experiments to correspond to the EC25, a concentration that gives 25% of the maximal response of GABA. The samples were incubated at room temperature for 60 minutes on a shaker. The incubation was stopped by rapid vacuum filtration over glass-fiber filter plates (UniFilter-96 well, GF/B membrane plates, PerkinElmer) using a 96-well plate harvester (TOMTEK© Harvester). The UniFilter plate was washed five times with ice-cold wash buffer (50 mM Tris-HCl buffer, pH 7.7, 10 mM MgCl2, and 100 mM NaCl. After filtration the plate was dried for 90 minutes at 55° C. The plates were closed on the bottom with black sealing membranes, and liquid scintillation cocktail (35 μL, Betaplate Scint, PerkinElmer) was added to each well. After sealing the top of the plate, an additional incubation step of 90 minutes at room temperature followed before measuring the plate. The amount of membrane-bound [^35S]GTPgS was measured using a 96-well plate reader (Microbeta®, PerkinElmer). Nonspecific binding was measured in the presence of unlabeled 10 μM of GTPgS (Millipore) and without GABA. Basal binding was measured in the absence of 1 μM GABA, and maximal binding was measured in the presence of GABA using 1 mM GABA concentrations.
Data analysis. The concentration-response curves of compounds of the present disclosure in the presence of EC25 of GABA-B receptor agonist were generated using the GraphPad Prism® program (GraphPad Software, San Diego, Calif.). Data was normalized using basal binding as 0% and maximal binding as 100%. The curves were fitted by nonlinear regression allowing determination of EC50 values from sigmoidal dose-response curves. Each curve was performed using triplicate sample per date point and 10 concentrations.
Cc1cc(N[C@H]2C[C@@H](O)C2)n2nc(C(C)c3ccc(Cl)cc3)cc2n1 (relative stereo) [Example 2-18, cis-3-({2-[1-(4-chlorophenyl)ethyl]-5-methylpyrazolo[1,5-a]pyrimidin-7-yl}amino)cyclobutanol] was tested, and the EC50 was 0.499 µM. Cc1cc(N[C@H]2C[C@H](O)C2)n2nc(C(C)c3ccc(Cl)cc3)cc2n1 (relative stereo) [Example 2-19, trans-3-({2-[1-(4-chlorophenyl)ethyl]-5-methylpyrazolo[1,5-a]pyrimidin-7-yl}amino)cyclobutanol] was tested, and the EC50 was 1.31 µM. In the case of Cc1cc(N2CCCCC2CCO)n2nc(Cc3ccc(Cl)cc3)cc2n1 (stereo not shown) [Example 1-1, 2-{1-[2-(4-chlorobenzyl)-5-methylpyrazolo[1,5-a]pyrimidin-7-yl]piperidin-2-yl}ethanol], the EC50 is reported as 1.4 µM. With Cc1cc(N2CCCCC2CO)n2nc(Cc3ccc(Cl)cc3)cc2n1 (stereo not shown) [Example 1-2, {1-[2-(4-chlorobenzyl)-5-methylpyrazolo[1,5-a]pyrimidin-7-yl]piperidin-2-yl}methanol] the EC50 was 1.66 µM. For Cc1cc(NC2(C)CC2)n2nc(Cc3ccc(Cl)cc3)cc2n1 [Example 1-3, 2-(4-chlorobenzyl)-5-methyl-N-(1-methylcyclopropyl)pyrazolo[1,5-a]pyrimidin-7-amine], the EC50 was 2.55 µM. In the case of Cc1cc(N2CCCC(F)(F)C2)n2nc(Cc3ccc(Cl)cc3)cc2n1 [Example 1-4, 2-(4-chlorobenzyl)-7-(3,3-difluoropiperidin-1-yl)-5-methylpyrazolo[1,5-a]pyrimidine], the EC50 is reported as 2.89 µM. In the case of Cc1cc(N2CCC(O)C(F)(F)C2)n2nc(Cc3ccc(Cl)cc3)cc2n1 (stereo not shown) [Example 1-5, 1-[2-(4-chlorobenzyl)-5-methylpyrazolo[1,5-a]pyrimidin-7-yl]-3,3-difluoropiperidin-4-ol], the EC50 is reported as 5.93 µM. With Cc1cc(N2CCC[C@H](O)C2)n2nc(Cc3ccc(Cl)cc3)cc2n1 [Example 1-6, (3S)-1-[2-(4-chlorobenzyl)-5-methylpyrazolo[1,5-a]pyrimidin-7-yl]piperidin-3-ol] the EC50 was 0.974 µM. For Cc1cc(N2CCC[C@@H](O)C2)n2nc(Cc3ccc(Cl)cc3)cc2n1 [Example 1-7, (3R)-1-[2-(4-chlorobenzyl)-5-methylpyrazolo[1,5-a]pyrimidin-7-yl]piperidin-3-ol], the EC50 was 1.23 µM. Cc1cc(N2CCC[C@H](CO)C2)n2nc(Cc3ccc(Cl)cc3)cc2n1 [Example 1-8, {(3S)-1-[2-(4-chlorobenzyl)-5-methylpyrazolo[1,5-a]pyrimidin-7-yl]piperidin-3-yl}methanol] showed an EC50 of 1.3 µM. For Cc1cc(N2CCCCC2)n2nc(Cc3ccc(Cl)cc3)cc2n1 [Example 1-9, 2-(4-chlorobenzyl)-5-methyl-7-(piperidin-1-yl)pyrazolo[1,5-a]pyrimidine], the EC50 was 2.57 µM. In the case of Cc1cc(N2CCCCC2=O)n2nc(Cc3ccc(Cl)cc3)cc2n1 [Example 1-10, 1-[2-(4-chlorobenzyl)-5-methylpyrazolo[1,5-a]pyrimidin-7-yl]piperidin-2-one], the EC50 is reported as over 10 µM. Work on CC(=O)N[C@@H]1CCN(c2cc(C)nc3cc(Cc4ccc(Cl)cc4)nn23)C1 [Example 1-11, N-{(3R)-1-[2-(4-chlorobenzyl)-5-methylpyrazolo[1,5-a]pyrimidin-7-yl]pyrrolidin-3-yl}acetamide] yielded an EC50 of over 10 µM. Cc1cc(N2CCCC2)n2nc(Cc3ccc(Cl)cc3)cc2n1 [Example 1-12, 2-(4-chlorobenzyl)-5-methyl-7-(pyrrolidin-1-yl)pyrazolo[1,5-a]pyrimidine] was tested, and the EC50 was 3.97 µM. Cc1cc(N2CCC2)n2nc(Cc3ccc(Cl)cc3)cc2n1 [Example 1-13, 7-(azetidin-1-yl)-2-(4-chlorobenzyl)-5-methylpyrazolo[1,5-a]pyrimidine] gave an EC50 of over 10 µM. Compound Cc1cc(NC(C)(C)C)n2nc(Cc3ccc(Cl)cc3)cc2n1 [Example 1-14, N-tert-butyl-2-(4-chlorobenzyl)-5-methylpyrazolo[1,5-a]pyrimidin-7-amine] has an EC50 of 1.03 µM. Compound Cc1cc(NC2(C(F)(F)F)CC2)n2nc(Cc3ccc(Cl)cc3)cc2n1 [Example 1-15, 2-(4-chlorobenzyl)-5-methyl-N-[1-(trifluoromethyl)cyclopropyl]pyrazolo[1,5-a]pyrimidin-7-amine] has an EC50 of 1.18 µM. With Cc1cc(NCC(F)(F)F)n2nc(Cc3ccc(Cl)cc3)cc2n1 [Example 1-16, 2-(4-chlorobenzyl)-5-methyl-N-(2,2,2-trifluoroethyl)pyrazolo[1,5-a]pyrimidin-7-amine] the EC50 was over 10 µM. Work on CC(=O)N[C@H]1CCN(c2cc(C)nc3cc(Cc4ccc(Cl)cc4)nn23)C1 [Example 1-17, N-{(3S)-1-[2-(4-chlorobenzyl)-5-methylpyrazolo[1,5-a]pyrimidin-7-yl]pyrrolidin-3-yl}acetamide] yielded an EC50 of over 10 µM. Cc1cc(N[C@@H](C)C(F)(F)F)n2nc(Cc3ccc(Cl)cc3)cc2n1 [Example 1-18, 2-(4-chlorobenzyl)-5-methyl-N-[(2S)-1,1,1-trifluoropropan-2-yl]pyrazolo[1,5-a]pyrimidin-7-amine] gave an EC50 of 2.69 µM. In the case of Cc1cc(N2CCCC(C(N)=O)C2)n2nc(Cc3ccc(Cl)cc3)cc2n1 (stereo not shown) [Example 1-19, 1-[2-(4-chlorobenzyl)-5-methylpyrazolo[1,5-a]pyrimidin-7-yl]piperidine-3-carboxamide], the EC50 is reported as 10 µM. Cc1cc(N[C@H](C)C(F)(F)F)n2nc(Cc3ccc(Cl)cc3)cc2n1 [Example 1-20, 2-(4-chlorobenzyl)-5-methyl-N-[(2R)-1,1,1-trifluoropropan-2-yl]pyrazolo[1,5-a]pyrimidin-7-amine] gave an EC50 of 2.15 µM. For Cc1cc(N2CCC[C@@H](CO)C2)n2nc(Cc3ccc(Cl)cc3)cc2n1 [Example 1-21, {(3R)-1-[2-(4-chlorobenzyl)-5-methylpyrazolo[1,5-a]pyrimidin-7-yl]piperidin-3-yl}methanol], the EC50 was 1.38 µM. Cc1cc(N2CCCCC2CCO)n2nc(C(C)c3ccc(Cl)cc3)cc2n1 (stereo not shown) [Example 2-1, 2-(1-{2-[1-(4-chlorophenyl)ethyl]-5-methylpyrazolo[1,5-a]pyrimidin-7-yl}piperidin-2-yl)ethanol] was tested, and the EC50 was 0.118 µM. Work on Cc1cc(NC2(C)CC2)n2nc(C(C)c3ccc(Cl)cc3)cc2n1 (stereo not shown) [Example 2-2, 2-[1-(4-chlorophenyl)ethyl]-5-methyl-N-(1-methylcyclopropyl)pyrazolo[1,5-a]pyrimidin-7-amine] yielded an EC50 of 0.435 µM. Work on Cc1cc(N2CCC(F)(F)C2)n2nc(C(C)c3ccc(Cl)cc3)cc2n1 (stereo not shown) [Example 2-3, 2-[1-(4-chlorophenyl)ethyl]-7-(3,3-difluoropyrrolidin-1-yl)-5-methylpyrazolo[1,5-a]pyrimidine] yielded an EC50 of 0.508 µM. Cc1cc(N2CCC(F)CC2)n2nc(C(C)c3ccc(Cl)cc3)cc2n1 (stereo not shown) [Example 2-4, 2-[1-(4-chlorophenyl)ethyl]-7-(4-fluoropiperidin-1-yl)-5-methylpyrazolo[1,5-a]pyrimidine] was tested, and the EC50 was 0.128 µM. Cc1cc(N2CCCCC2CO)n2nc(C(C)c3ccc(Cl)cc3)cc2n1 (stereo not shown) [Example 2-5, (1-{2-[1-(4-chlorophenyl)ethyl]-5-methylpyrazolo[1,5-a]pyrimidin-7-yl}piperidin-2-yl)methanol] showed an EC50 of 0.146 µM. Cc1cc(N2CCCC(F)C2)n2nc(C(C)c3ccc(Cl)cc3)cc2n1 (stereo not shown) [Example 2-6, 2-[1-(4-chlorophenyl)ethyl]-7-(3-fluoropiperidin-1-yl)-5-methylpyrazolo[1,5-a]pyrimidine] gave an EC50 of 0.242 µM. Compound Cc1cc(N2CCCC(F)(F)C2)n2nc(C(C)c3ccc(Cl)cc3)cc2n1 (stereo not shown) [Example 2-7, 2-[1-(4-chlorophenyl)ethyl]-7-(3,3-difluoropiperidin-1-yl)-5-methylpyrazolo[1,5-a]pyrimidine] has an EC50 of 0.185 µM. Work on Cc1cc(NC(C)(C)C)n2nc(C(C)c3ccc(Cl)cc3)cc2n1 (stereo not shown) [Example 2-8, N-tert-butyl-2-[1-(4-chlorophenyl)ethyl]-5-methylpyrazolo[1,5-a]pyrimidin-7-amine] yielded an EC50 of 0.071 µM. With Cc1cc(N2CCC3(CC2)COC3)n2nc(C(C)c3ccc(Cl)cc3)cc2n1 (stereo not shown) [Example 2-9, 2-[1-(4-chlorophenyl)ethyl]-5-methyl-7-(2-oxa-7-azaspiro[3.5]non-7-yl)pyrazolo[1,5-a]pyrimidine] the EC50 was 0.604 µM. Cc1cc(N2CCC[C@H](O)C2)n2nc(C(C)c3ccc(Cl)cc3)cc2n1 (stereo partly drawn) [Example 2-10, (3S)-1-{2-[1-(4-chlorophenyl)ethyl]-5-methylpyrazolo[1,5-a]pyrimidin-7-yl}piperidin-3-ol] was tested, and the EC50 was 0.152 µM. In the case of Cc1cc(N2CCC[C@@H](O)C2)n2nc(C(C)c3ccc(Cl)cc3)cc2n1 (stereo partly drawn) [Example 2-11, (3R)-1-{2-[1-(4-chlorophenyl)ethyl]-5-methylpyrazolo[1,5-a]pyrimidin-7-yl}piperidin-3-ol], the EC50 is reported as 0.057 µM.
